# Source: patent US6737383B1, “Herbicidal oxadiazolidines” (priority 1999, dated 2004)
# Key:
# sugar beet = assay: Test B pre/postemergence sugar beet; format: in vivo, Beta vulgaris
# Method in brief: (§1)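 Test chemicals in a non-phytotoxic solvent mixture with surfactant were sprayed preemergence onto planted seeds and postemergence onto plants 2 to 18 cm tall (1- to 4-leaf stage). After twelve to sixteen days in a greenhouse, injury was visually rated against untreated controls from 0 (no effect) to 10 (complete control).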
# bamyardgrass = assay: Test B flood test barnyardgrass; format: in vivo, Echinochloa crus-galli; conditions: for Plant response rating, Barnyardgrass (0 to 10 scale, 0 is no effect, 10 is complete control): Rate 62 g/ha; for Plant response rating, Barnyardgrass (0 to 10 scale, 0 is no effect, 10 is complete control) / Barnyardgrass plant response rating (0 to 10 scale, 0 is no effect, 10 is complete control): visual evaluation after twelve to sixteen days; for Barnyardgrass plant response rating (0 to 10 scale, 0 is no effect, 10 is complete control): Rate 125 g/ha, under heading Pre-emergence
# Method in brief: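 Flood test on plants grown to the 2-leaf stage; treated plants kept in greenhouse twelve to sixteen days, then visually rated against controls on a 0 (no effect) to 10 (complete control) scale.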
# cocklebur = assay: Test B pre/postemergence cocklebur; format: in vivo, Xanthium strumarium
# Method in brief: as §1
# rape = assay: Test B pre/postemergence rape; format: in vivo, Brassica napus
# Method in brief: as §1
# [1] = Postemergence, Rate 125 g/ha, scale 0 to 10, 0 is no effect, 10 is complete control
# [2] = Postemergence, Rate 250 g/ha, scale 0 to 10, 0 is no effect, 10 is complete control
# [3] = Preemergence, Rate 62 g/ha, scale 0 to 10 (0 no effect, 10 complete control)
# [4] = Preemergence, Rate 250 g/ha, scale of 0 to 10 where 0 is no effect and 10 is complete control
# [5] = Preemergence, Rate 500 g/ha, scale of 0 to 10 where 0 is no effect and 10 is complete control
# [6] = Rate 62 g/ha, Postemergence, scale of 0 to 10 where 0 is no effect and 10 is complete control
# [7] = Rate 500 g/ha, Postemergence, scale 0 to 10, 0 no effect, 10 complete control
# [8] = flood test species, Pre-emergence
# [9] = Rate 250 g/ha, Pre-emergence, flood-test species, scale 0 to 10, 0 is no effect, 10 is complete control
# [10] = Rate 500 g/ha, Pre-emergence, flood test species, scale 0 to 10 (0 no effect, 10 complete control)
# [11] = Postemergence, Rate 62 g/ha, scale 0 to 10, 0 is no effect, 10 is complete control
# [12] = Postemergence, Rate 125 g/ha, scale of 0 to 10 where 0 is no effect and 10 is complete control
# [13] = Postemergence, Rate 250 g/ha, scale of 0 to 10, 0 is no effect, 10 is complete control
# [14] = Postemergence, Rate 500 g/ha, scale of 0 to 10 where 0 is no effect and 10 is complete control
# [15] = Preemergence, Rate 125 g/ha, scale of 0 to 10 where 0 is no effect and 10 is complete control
smiles,measurement,setting,value
Cc1nnsc1Cn1c(=O)on(C(=O)N(c2ccc(F)cc2)C(C)C)c1=O [Compound 380],"Plant response rating, Sugarbeets",sugar beet; [1],0
same,"Plant response rating, Sugarbeets",sugar beet; [2],0
same,"Plant response rating, Sugarbeets",sugar beet; [3],0
same,Sugarbeets plant response rating (0 to 10 scale),"sugar beet; Preemergence, Rate 125 g/ha",0
same,Sugarbeets plant response rating,sugar beet; [4],0
same,Sugarbeets plant response rating,sugar beet; [5],0
same,Sugarbeets plant response rating,sugar beet; [6],0
same,"Plant response rating, Sugarbeets",sugar beet; [7],0
same,"Plant response rating, Barnyardgrass (0 to 10 scale, 0 is no effect, 10 is complete control)",bamyardgrass; [8],0
same,"Barnyardgrass plant response rating (0 to 10 scale, 0 is no effect, 10 is complete control)",bamyardgrass; flood test species,0
same,Barnyardgrass plant response rating,bamyardgrass; [9],0
same,Barnyardgrass plant response rating,bamyardgrass; [10],0
same,"Plant response rating, Cocklebur",cocklebur; [1],0
same,"Plant response rating, Cocklebur",cocklebur; [2],0
same,"Plant response rating, Cocklebur",cocklebur; [3],0
same,Cocklebur plant response rating (0 to 10 scale),"cocklebur; Preemergence, Rate 125 g/ha",0
same,Cocklebur plant response rating,cocklebur; [4],0
same,Cocklebur plant response rating,cocklebur; [6],0
same,"Plant response rating, Cocklebur",cocklebur; [7],6
same,"Plant response rating, Rape",rape; [1],0
same,"Plant response rating, Rape",rape; [2],0
same,"Plant response rating, Rape",rape; [3],0
same,Rape plant response rating (0 to 10 scale),"rape; Preemergence, Rate 125 g/ha",0
same,Rape plant response rating,rape; [4],0
same,Rape plant response rating,rape; [5],0
same,Rape plant response rating,rape; [6],0
same,"Plant response rating, Rape",rape; [7],0
CCC(C)n1c(=O)on(C(=O)N(c2ccccc2)C(C)C)c1=O (stereo not drawn) [Compound 611],"Plant response rating, Sugarbeets",sugar beet; [11],0
same,"Plant response rating, Sugarbeets",sugar beet; [12],0
same,Sugarbeets plant response rating,sugar beet; [13],0
same,"Plant response rating, Sugarbeets",sugar beet; [14],2
same,Sugarbeets plant response rating,sugar beet; [3],2
same,Sugarbeets plant response rating,sugar beet; [15],2
same,"Plant response rating, Sugarbeets",sugar beet; [5],6
same,"Plant response rating, Barnyardgrass (0 to 10 scale, 0 is no effect, 10 is complete control)",bamyardgrass; [8],0
same,"Barnyardgrass plant response rating (0 to 10 scale, 0 is no effect, 10 is complete control)",bamyardgrass; flood test species,0
same,Barnyardgrass plant response rating,"bamyardgrass; Rate 250 g/ha, Pre-emergence (flood test species), scale 0 to 10, 0 is no effect, 10 is complete control",0
same,Barnyardgrass plant response rating,"bamyardgrass; Rate 500 g/ha, Pre-emergence section of Table B, 0 to 10 scale (0 no effect, 10 complete control)",5
same,"Plant response rating, Cocklebur",cocklebur; [11],0
same,"Plant response rating, Cocklebur",cocklebur; [12],2
same,Cocklebur plant response rating,cocklebur; [13],2
same,"Plant response rating, Cocklebur",cocklebur; [14],3
same,Cocklebur plant response rating,cocklebur; [3],0
same,Cocklebur plant response rating,cocklebur; [15],0
same,Cocklebur plant response rating (0 to 10 scale),"cocklebur; Preemergence, Rate 250 g/ha",0
same,"Plant response rating, Cocklebur",cocklebur; [5],1
same,"Plant response rating, Rape",rape; [11],0
same,"Plant response rating, Rape",rape; [12],0
same,Rape plant response rating,rape; [13],2
same,"Plant response rating, Rape",rape; [14],3
same,Rape plant response rating,rape; [3],3
same,Rape plant response rating,rape; [15],3
same,"Plant response rating, Rape",rape; [5],10
Cc1nnsc1Cn1c(=O)on(C(=O)N(c2ccccc2)C(C)C)c1=O [Compound 378],"Plant response rating, Sugarbeets",sugar beet; [1],0
same,"Plant response rating, Sugarbeets",sugar beet; [2],0
same,"Plant response rating, Sugarbeets",sugar beet; [3],0
same,Sugarbeets plant response rating (0 to 10 scale),"sugar beet; Preemergence, Rate 125 g/ha",0
same,Sugarbeets plant response rating,sugar beet; [4],0
same,Sugarbeets plant response rating,sugar beet; [5],0
same,Sugarbeets plant response rating,sugar beet; [6],0
same,"Plant response rating, Sugarbeets",sugar beet; [7],0
same,"Plant response rating, Barnyardgrass (0 to 10 scale, 0 is no effect, 10 is complete control)",bamyardgrass; [8],0
same,"Barnyardgrass plant response rating (0 to 10 scale, 0 is no effect, 10 is complete control)",bamyardgrass; flood test species,0
same,Barnyardgrass plant response rating,bamyardgrass; [9],0
same,Barnyardgrass plant response rating,bamyardgrass; [10],0
same,"Plant response rating, Cocklebur",cocklebur; [1],0
same,"Plant response rating, Cocklebur",cocklebur; [2],0
same,"Plant response rating, Cocklebur",cocklebur; [3],0
same,Cocklebur plant response rating (0 to 10 scale),"cocklebur; Preemergence, Rate 125 g/ha",0
same,Cocklebur plant response rating,cocklebur; [4],0
same,Cocklebur plant response rating,cocklebur; [5],0
same,Cocklebur plant response rating,cocklebur; [6],0
same,"Plant response rating, Cocklebur",cocklebur; [7],1
same,"Plant response rating, Rape",rape; [1],0
same,"Plant response rating, Rape",rape; [2],0
same,"Plant response rating, Rape",rape; [3],0
same,Rape plant response rating (0 to 10 scale),"rape; Preemergence, Rate 125 g/ha",0
same,Rape plant response rating,rape; [4],0
same,Rape plant response rating,rape; [5],0
same,Rape plant response rating,rape; [6],0
same,"Plant response rating, Rape",rape; [7],3
